Common to all, as to assay: Postemergent control of plant species
One assay has as its system cotton. In kind it is in vivo, Gossypium spp. To be noted: Gossypium hirsutum, post-emergence, 336 h, read-out: percent postemergent control. Put shortly:
(§1)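 Each compound is dissolved in acetone, mixed with an equal volume of 0.1% surfactant water, and sprayed on plants grown to 2-4 leaves in nutrient soil. Treated and untreated beds sit under identical greenhouse temperature and light for roughly two weeks before growth reduction is rated.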

The subject of the next assay is rape. The class given is in vivo, Brassica napus. To be noted: Brassica napus, post-emergence, 336 h, read-out: percent postemergent control. Put shortly:
as §1

A further assay has as its system soybean. The class given is in vivo, Glycine max. To be noted: Glycine max, post-emergence, 336 h, read-out: percent postemergent control. Put shortly:
as §1

The next assay deals with sugar beet. The class given is in vivo, Beta saccharifera. To be noted: Beta vulgaris, post-emergence, 336 h, read-out: percent postemergent control. The method, boiled down:
as §1

Another assay relates to cocklebur. The class given is in vivo, Xanthium spp. To be noted: Xanthium strumarium, post-emergence, 336 h, read-out: percent postemergent control. Put shortly: as §1
For another assay, the system named is jimsonweed. In kind it is in vivo, Datura stramonium. To be noted: Datura stramonium, post-emergence, 336 h, read-out: percent postemergent control. Put shortly:
as §1

The test system of another assay is annual morning glory. In kind it is in vivo, Ipomoea spp. To be noted: Ipomoea, post-emergence, 336 h, read-out: percent postemergent control. The method, boiled down: as §1
The next assay has as its system pigweed. The class given is in vivo, Amaranthus spp. To be noted: Amaranthus retroflexus, post-emergence, 336 h, read-out: percent postemergent control. Put shortly:
as §1

The next assay deals with velvetleaf. In kind it is in vivo, Abutilon theophrasti. To be noted: Abutilon theophrasti, post-emergence, 336 h, read-out: percent postemergent control. The method, boiled down:
as §1

The next assay concerns corn. In kind it is in vivo, Zea mays. To be noted: Zea mays, post-emergence, 336 h, read-out: percent postemergent control. The method, boiled down: as §1
Another assay has as its system rice. In kind it is in vivo, Oryza sativa. To be noted: Oryza sativa, post-emergence, 336 h, read-out: percent postemergent control. The method, boiled down:
as §1

A further assay relates to sorghum. The class given is in vivo, Sorghum vulgare. To be noted: Sorghum, post-emergence, 336 h, read-out: percent postemergent control. Put shortly:
as §1

In the next assay the test system is wheat. In kind it is in vivo, Triticum aestivum. To be noted: Triticum aestivum, post-emergence, 336 h, read-out: percent postemergent control. Put shortly: as §1
A further assay relates to barnyardgrass. In kind it is in vivo, Echinochloa crusgalli. To be noted: Echinochloa crus-galli, post-emergence, 336 h, read-out: percent postemergent control. The method, boiled down: as §1
The test system of the next assay is crabgrass. The class given is in vivo, Digitaria spp. To be noted: Digitaria sanguinalis, post-emergence, 336 h, read-out: percent postemergent control. Put shortly:
as §1

A further assay concerns yellow foxtail. The class given is in vivo, Setaria lutescens. To be noted: Setaria, post-emergence, 336 h, read-out: percent postemergent control. Put shortly: as §1
The next assay deals with johnson grass. The class given is in vivo, Sorghum halepense. To be noted: Sorghum halepense, post-emergence, 336 h, read-out: percent postemergent control. The method, boiled down:
as §1

The next assay concerns wild oats. In kind it is in vivo, Avena fatua. To be noted: Avena fatua, post-emergence, 336 h, read-out: percent postemergent control. The method, boiled down:
as §1

A further assay deals with yellow nutsedge. The class given is in vivo, Cyperus esculentus. To be noted: Cyperus, post-emergence, 336 h, read-out: percent postemergent control. Put shortly:
as §1

In the case of `Cc1ccn2nc(S(=O)(=O)Nc3c(Cl)ccc4ccccc34)nc2n1` [Compound 244], the plant injury at 500 ppm in the assay on cotton came out at 100%; in the assay with rape it was 100%; in the assay on soybean, 45%; in the assay with sugar beet, 100%; in the assay on corn, 40%; in the assay on rice, 40%. In addition, the results for the plant injury at 500 ppm in the assay on sorghum and with wheat were 90% and 20%, respectively. The pest or weed control at 500 ppm in the assay with cocklebur was 100%; with jimsonweed, 100%; in the assay with annual morning glory, 90%; in the assay on pigweed it was 100%; in the assay with velvetleaf it was 100%; in the assay on barnyardgrass, 40%. Also, the pest or weed control at 500 ppm came out at 40% with crabgrass; 95% in the assay on yellow foxtail; 80% with johnson grass; 0% with wild oats; 90% in the assay on yellow nutsedge.

For `COC(=O)c1ccc(Cl)c(NS(=O)(=O)c2nc3nc(C)cc(C)n3n2)c1Cl` [Compound 82], the plant injury at 500 ppm with cotton is 85%; with rape, 100%; in the assay with soybean, 85%; in the assay with sugar beet it was 95%; with corn it was 0%; with rice, 0%. Further, the plant injury at 500 ppm in the assay on sorghum and with wheat was 0% each time. Further, the pest or weed control at 500 ppm was 85% in the assay on cocklebur; 90% in the assay on jimsonweed; 85% in the assay on annual morning glory; 100% in the assay with pigweed; 85% in the assay with velvetleaf; 0% with barnyardgrass. The pest or weed control at 500 ppm in the assay on crabgrass, in the assay with yellow foxtail, in the assay on johnson grass, in the assay on wild oats and with yellow nutsedge was 0% throughout.

Consider `COC(=O)c1nn(C)c(C)c1NS(=O)(=O)c1nc2nc(C)cc(C)n2n1` [Compound 250], for which the plant injury at 500 ppm with cotton was found to be 0%; in the assay with rape, 70%; with soybean, 50%; in the assay with sugar beet, 30%; with corn, 0%; with rice it was 0%. Moreover, the plant injury at 500 ppm in the assay with sorghum and in the assay with wheat was 0% throughout. For the same compound, the pest or weed control at 500 ppm with cocklebur was 50%; with jimsonweed, 50%; in the assay on annual morning glory, 25%; in the assay on pigweed, 40%; in the assay with velvetleaf, 70%; in the assay on barnyardgrass, 0%. Also, the pest or weed control at 500 ppm in the assay with crabgrass, in the assay with yellow foxtail, with johnson grass, with wild oats and in the assay on yellow nutsedge was 0% each time.

`Cc1cc(C)n2nc(S(=O)(=O)Nc3c(C)ccc(Cl)c3Cl)nc2n1` [Compound 74]: the plant injury at 500 ppm stood at 70% in the assay on cotton; 100% in the assay with rape; 80% with soybean; 100% in the assay with sugar beet; 0% with corn; 0% with rice. The plant injury at 500 ppm in the assay on sorghum was found to be 80%; with wheat, 0%. In addition, the pest or weed control at 500 ppm with cocklebur was found to be 100%; with jimsonweed it was 90%; in the assay with annual morning glory, 80%; in the assay on pigweed, 70%; in the assay with velvetleaf, 100%; with barnyardgrass it was 70%. Also, the pest or weed control at 500 ppm in the assay on crabgrass was 0%; in the assay with yellow foxtail, 60%; in the assay with johnson grass, 50%; in the assay on wild oats it was 0%; in the assay on yellow nutsedge it was 95%.

On to `COC(=O)c1c(NS(=O)(=O)c2nc3nc(C)ccn3n2)c(C)nn1C` [Compound 248], for which the plant injury at 500 ppm amounted to 50% in the assay on cotton; 100% in the assay with rape; 40% in the assay on soybean; 75% in the assay with sugar beet; 0% in the assay on corn; 50% in the assay with rice. The plant injury at 500 ppm in the assay on sorghum was 80%; in the assay with wheat, 0%. In addition, the pest or weed control at 500 ppm with cocklebur was determined as 0%; with jimsonweed, 0%; with annual morning glory it was 0%; in the assay on pigweed, 0%; in the assay on velvetleaf, 100%; with barnyardgrass, 0%. Moreover, the pest or weed control at 500 ppm with crabgrass, with yellow foxtail, with johnson grass, in the assay on wild oats and in the assay on yellow nutsedge was 0% throughout.

For `Cc1ccn2nc(S(=O)(=O)Nc3c(F)c(F)cc(F)c3F)nc2n1` [Compound 163], the plant injury at 500 ppm worked out at 0% with cotton; 70% with rape; 0% in the assay with soybean; 0% in the assay with sugar beet; 0% in the assay with corn; 0% with rice. Moreover, the plant injury at 500 ppm in the assay with sorghum and in the assay on wheat was 0% throughout. Further, the pest or weed control at 500 ppm amounted to 40% in the assay with cocklebur; 70% in the assay on jimsonweed; 0% in the assay with annual morning glory; 90% in the assay on pigweed; 20% in the assay on velvetleaf; 0% in the assay on barnyardgrass. The pest or weed control at 500 ppm came to 0% with crabgrass; 50% with yellow foxtail; 0% in the assay with johnson grass; 0% with wild oats; 0% with yellow nutsedge.

For `Cc1cc(C)n2nc(S(=O)(=O)Nc3c(Cl)ccc4ccccc34)nc2n1` [Compound 243], the plant injury at 500 ppm with cotton was 80%; in the assay with rape, 100%; with soybean, 85%; in the assay on sugar beet it was 95%; in the assay on corn it was 75%; in the assay on rice, 45%. The plant injury at 500 ppm in the assay on sorghum amounted to 75%; in the assay with wheat it was 20%. The pest or weed control at 500 ppm turned out to be 100% in the assay on cocklebur; 95% in the assay on jimsonweed; 80% in the assay on annual morning glory; 80% in the assay with pigweed; 90% with velvetleaf; 70% in the assay on barnyardgrass. Moreover, the pest or weed control at 500 ppm is 0% in the assay with crabgrass; 75% in the assay with yellow foxtail; 80% in the assay on johnson grass; 0% with wild oats; 95% with yellow nutsedge.

The values are drawn from US4740233A, “Substituted 1,2,4-triazolo[1,5-a]-pyrimidine-2-sulfonamides and compositions and methods of controlling undesired vegetation and suppressing the nitrification of ammonium nitrogen in soil” (The Dow Chemical Company, priority 1986, dated 1988).
